Reference: EP1963277B1, “FLUORINATED COMPOUNDS” (priority 2005, dated 2007)
Read-outs that look alike come from different tables or passages of the source.

What was measured:
Type in all cases: in vivo
Male, CD-1 mice = assay: Maximal Electroshock Assay (mouse); conditions: for duration of action: mouse MES, judged by similar potency at 1h and 4h pretreatment timepoints; for Ratio ED50 4h vs. 1h / shift in ED50 for 1 vs. 4h / ED50: mouse; for Ratio ED50 4h vs. 1h / shift in ED50 for 1 vs. 4h: oral; for ED50: oral pretreatment, range in parentheses
Protocol: Male, CD-1 mice (20-30g body weight) were orally pretreated with test compound or vehicle control, and either at 1h or 4h post dose a maximal electroshock (45mA amplitude, 0.2s duration, 60Hz) was applied by corneal electrodes. Protection was defined by the absence of a tonic extensor seizure in the animal within 20s of application of the electrical stimulus, which typically occurred in all vehicle pretreated animals. Animals received only one electroshock and so separate animals were used for the 1h and 4h timepoints. All drugs were administered in multiple doses.

[1] = tested on: Male, Sprague-Dawley rats; assay: Maximal Electroshock Assay (rat); conditions: for duration of action: rat MES, judged by similar potency at 0.5h and 4h pretreatment timepoints; for Ratio ED50 4h vs. 0.5h / shift in ED50 for 0.5 vs. 4h / ED50: rat; for Ratio ED50 4h vs. 0.5h / shift in ED50 for 0.5 vs. 4h: oral; for ED50: oral pretreatment, range in parentheses
Protocol: Male, Sprague-Dawley rats (approx. 100g body weight) were prescreened for tonic seizure susceptibility prior to drug testing. […] Protection was defined by the absence of a tonic extensor seizure in the animal within 20s of application of the electrical stimulus, which typically occurred in all vehicle pretreated animals. Animals received only one electroshock on the drug test day and so separate animals were used for the 0.5h and 4h timepoints. All drugs were administered in multiple doses.

rats = assay: Persistent Inflammatory Pain (Formalin Model); conditions: Rattus norvegicus, formalin test, 30 min pretreatment; for inhibition at 30 mg/kg: ip, i.p.; for inhibition at 60 mg/kg: po, p.o.
Protocol: The formalin test is a chemically-induced tonic pain model in which injection of formalin into a hind paw elicits a biphasic nociceptive behavior. The second phase of formalin response is predominantly due to a central sensitization phenomenon. Most clinically used drugs against neuropathic pain arc active on this second phase of formalin response. Formalin test is accepted as a valid model of persistent clinical pain.
The test was done by pretreating the rats with the test compound and 30 min later (pretreatment time), 50 µl of 2.5% formalin was injected into the right hind paw of the animal. The number of paw licking and flinching episodes were scored for 60 min post-formalin injection.
The compounds were administered either intraperitoneally (30 mg/kg) or orally (60 mg/kg).

SNI rats [2] = assay: Spared Nerve Injury (SNI) model, mechanical allodynia (Dynamic Plantar Aesthesiometer); conditions: for withdrawal threshold, Post Admin 30 min / withdrawal threshold, Post Admin 180 min / withdrawal threshold, Post Admin 60 min: *** P<0.001 vs Pre-Admin.; for withdrawal threshold, Pre-Admin. 0 min: baseline before administration
Protocol: (§1) The compounds were tested for their efficacy in reducing mechanical allodynia and cold allodynia in the spared nerve injury (SNI) model of chronic neuropathic pain. In this model, the left sciatic nerve of the rat is exposed under anesthesia. Two of the branches of the sciatic nerve viz. the common peroneal and tibial nerve are ligated and sectioned. The third branch (sural nerve) is left intact. The animals were allowed a post-operative recovery period of 7 days before they were subjected to any test.
The presence of mechanical allodynia was assessed using the Dynamic Plantar Aesthesiometer (Ugo Basile, Italy) which is a modified version of the Von Frey Hair test. In this, a test filament is positioned below the animal's hind paw and the unit is activated which causes the filament to move up and touch the plantar surface of the hind paw. Increasing force is applied to the paw via the filament. […] The cut-off force is set at 50 g. The tests were done on both the non-injured (control) and the injured (SNI) paw.
Testing of compounds was done after 21 days post-operatively. After initial basal readings were taken, the test compound or the vehicle was administered (10 ml/kg) either intraperitoneally (30 mg/kg) or orally (60 mg/kg). The readings were taken again 30, 60 and 180 min after the compound/vehicle administration.

SNI rats [3] = assay: Spared Nerve Injury (SNI) model, cold allodynia (acetone test); conditions: for duration (s) of nociceptive response, Post Admin 30 min: *** P<0.001 vs Pre-Admin.; for duration (s) of nociceptive response, Pre-Admin. 0 min: baseline before administration
Protocol: as §1
Cold allodynia was assessed by using the acetone test. In this model, 25 µl of acetone is sprayed on to the plantar surface of the hind paw. Evaporation of acetone causes cooling of the skin. The cold stimulus sets up nociceptive responses from the injured paw as evidenced by paw lifting, paw licking and grooming. The duration of the nociceptive responses is noted.
Testing of compounds was done after 21 days post-operatively. After initial basal readings were taken, the test compound or the vehicle was administered (10 ml/kg) either intraperitoneally (30 mg/kg) or orally (60 mg/kg). The readings were taken 30 min after the administration.

FCA-treated rats [4] = assay: Freund's Complete Adjuvant (FCA) model, mechanical allodynia (modified Randall-Selitto method); conditions: p.o.; for paw withdrawal threshold (g), Post Admin 30 min / paw withdrawal threshold (g), Post Admin 60 min / paw withdrawal threshold (g), Post Admin 180 min: 60 mg/kg, ** P<0.01, *** P<0.001 vs Pre-Admin.; for paw withdrawal threshold (g), Pre-Admin. 0 min: group later given 60 mg/kg, baseline before administration
Protocol: (§2) Administration of FCA to the hind paw of an animal induces the formation of a localized edema and has been widely used as a model of chronic inflammatory pain. 100 µl of FCA is injected subcutaneously into the dorsal aspect of the left hind paw of the rats. The edema appears within 2 h reaches a peak by 6h and lasts for about 7 days. The effects of compounds on mechanical allodynia and paw volume were studied 2 days after FCA administration.
The effect of the compounds in alleviating mechanical allodynia was assessed in the FCA-treated rats using the modified Randall-Selitto method (Analgesy-Meter, Ugo Basile, Italy). The animal's paw is placed on a small plinth under a cone-shaped pusher. Increasing force is applied to the paw by depressing a pedal until vocalization or withdrawal of the paw occurs. The minimum force required to elicit this vocalization/withdrawal is the paw pressure threshold. The cut-off was set at 150 g.
After the initial basal (control) readings were taken, the test compound (60 mg/kg)/vehicle was administered orally in a volume of 10 ml/kg. The paw pressure thresholds were measured 30, 60 and 180 min post administration. […] Some of the compounds were effective even at 60 and 180 min post administration.

FCA-treated rats [5] = assay: Freund's Complete Adjuvant (FCA) model, paw edema/volume (plethysmometer); conditions: p.o.; for paw volume (ml), Post Admin 30 min / paw volume (ml), Post Admin 60 min: 60 mg/kg; for paw volume (ml), Pre-Admin. 0 min: group later given 60 mg/kg, baseline before administration
Protocol: as §2
The edema/volume of the paw is a measure of inflammation induced by FCA. This was measured by using a plethysmometer (Ugo Basile, Italy). In this, the paw of the rat is immersed in a reservoir of water and the volume of water displaced indicates the paw volume.
After the initial basal (control) readings were taken, the test compound (60 mg/kg)/vehicle was administered orally in a volume of 10 ml/kg.

[6] = electroshock 1h post dose, blockade of tonic extensor seizure, read-out: MES oral ED50 1h
[7] = read-out: MES oral ED50 4h, electroshock 4h post dose
[8] = read-out: MES oral ED50 0.5h, electroshock 0.5h post dose
[9] = *** P<0.001, read-out: %Inhibition Phase I
[10] = *** P<0.001, read-out: %Inhibition Phase II
[11] = ** P<0.01, *** P<0.001, read-out: %Inhibition Phase II
[12] = group later given 30 mg/kg, i.p.
[13] = group later given 60 mg/kg, p.o.

SMILES	duration of action (Male, CD-1 mice)	Ratio ED50 4h vs. 1h (Male, CD-1 mice)	shift in ED50 for 1 vs. 4h (Male, CD-1 mice) [fold]	ED50 (Male, CD-1 mice; [6]) [mg/kg]	ED50 (Male, CD-1 mice; [7]) [mg/kg]	duration of action [1]	Ratio ED50 4h vs. 0.5h [1]	shift in ED50 for 0.5 vs. 4h [1] [fold]	ED50 [1, 8] [mg/kg]	ED50 [1, 7] [mg/kg]	inhibition at 30 mg/kg (rats; [9]) [%]	inhibition at 30 mg/kg (rats; [10]) [%]	inhibition at 60 mg/kg (rats; [11]) [%]	inhibition at 60 mg/kg (rats; read-out: %Inhibition Phase I) [%]	withdrawal threshold, Post Admin 30 min (SNI rats [2]; 30 mg/kg, i.p.)	withdrawal threshold, Post Admin 180 min (SNI rats [2]; 30 mg/kg, i.p.)	withdrawal threshold, Post Admin 30 min (SNI rats [2]; 60 mg/kg, p.o.)	withdrawal threshold, Post Admin 60 min (SNI rats [2]; 60 mg/kg, p.o.)	withdrawal threshold, Post Admin 180 min (SNI rats [2]; 60 mg/kg, p.o.)	withdrawal threshold, Pre-Admin. 0 min (SNI rats [2]; [12]) [g]	other results
CC(=O)NC(COC(F)F)C(=O)NCc1ccccc1 (centres unmarked) [Compound 3, 2-(Acetylamino)-N-benzyl-3-(difluoromethoxy)propanamide]	longer than Lacosamide	3.5	1 to 3.5	5.7	20	longer than Lacosamide	1.4	1 to 1.4	3	4.2	87.9 ± 12.1	90.2 ± 6.5	46.1 ± 8.7	21.4 ± 10.2	22.5 ± 2.1*** g	14.1 ± 1.6*** g	19.4 ± 2.3*** g	20.6 ± 3.1*** g	10.8 ± 1.8 g	7.5 ± 1.4	withdrawal threshold, Pre-Admin. 0 min (SNI rats [2]; [13]): 9.7 ± 2.5 g; duration (s) of nociceptive response, Post Admin 30 min (SNI rats [3]; 30 mg/kg, i.p.): 4.3 ± 1.6*** s; duration (s) of nociceptive response, Post Admin 30 min (SNI rats [3]; 60 mg/kg, p.o.): 17.2 ± 6.2*** s; duration (s) of nociceptive response, Pre-Admin. 0 min (SNI rats [3]; [12]): 45.8 ± 9.4 s; duration (s) of nociceptive response, Pre-Admin. 0 min (SNI rats [3]; [13]): 70.7 ± 18.9 s; paw withdrawal threshold (g), Post Admin 30 min (FCA-treated rats [4]): 57.8 ± 4.9** g; paw withdrawal threshold (g), Post Admin 60 min (FCA-treated rats [4]): 46.7 ± 3.8 g; paw withdrawal threshold (g), Post Admin 180 min (FCA-treated rats [4]): 37.8 ± 5.4 g; paw withdrawal threshold (g), Pre-Admin. 0 min (FCA-treated rats [4]): 32.8 ± 6.5 g; paw volume (ml), Post Admin 30 min (FCA-treated rats [5]): 2.3 ± 0.1 mL; paw volume (ml), Post Admin 60 min (FCA-treated rats [5]): 2.3 ± .01 mL; paw volume (ml), Pre-Admin. 0 min (FCA-treated rats [5]): 2.3 ± 0.0 mL
CC(=O)N[C@H](COC(F)F)C(=O)NCc1ccc(Cl)cc1 [Compound 20]	longer than Lacosamide	2.1	1 to 3.5	8.7	17.9	longer than Lacosamide	1.2	1 to 1.4	1.7	2	75.3 ± 9.3	82.3 ± 9.7	57.6 ± 7	9.6 ± 8.1	24.9 ± 4.4*** g	26.3 ± 2.5*** g	19.3 ± 1.8*** g	20.3 ± 1.6*** g	14.7 ± 0.9*** g	12.4 ± 1.3	withdrawal threshold, Post Admin 60 min (SNI rats [2]; 30 mg/kg, i.p.): 23.3 ± 3.2*** g; withdrawal threshold, Pre-Admin. 0 min (SNI rats [2]; [13]): 7.5 ± 0.5 g; duration (s) of nociceptive response, Post Admin 30 min (SNI rats [3]; 30 mg/kg, i.p.): 3.4 ± 2.1*** s; duration (s) of nociceptive response, Post Admin 30 min (SNI rats [3]; 60 mg/kg, p.o.): 16.6 ± 6.3*** s; duration (s) of nociceptive response, Pre-Admin. 0 min (SNI rats [3]; [12]): 45.6 ± 6.9 s; duration (s) of nociceptive response, Pre-Admin. 0 min (SNI rats [3]; [13]): 33.3 ± 4.3 s; paw withdrawal threshold (g), Post Admin 30 min (FCA-treated rats [4]): 67.1 ± 9.9*** g; paw withdrawal threshold (g), Post Admin 60 min (FCA-treated rats [4]): 60.4 ± 5.8*** g; paw withdrawal threshold (g), Post Admin 180 min (FCA-treated rats [4]): 64.2 ± 5.6*** g; paw withdrawal threshold (g), Pre-Admin. 0 min (FCA-treated rats [4]): 23.3 ± 2.1 g; paw volume (ml), Post Admin 30 min (FCA-treated rats [5]): 2.3 ± 0.1 mL; paw volume (ml), Post Admin 60 min (FCA-treated rats [5]): 2.3 ± 0.1 mL; paw volume (ml), Pre-Admin. 0 min (FCA-treated rats [5]): 2.3 ± 0.1 mL
